Experimental data published in US20120115724A1, “METHOD OF CONTROLLING UNDESIRED VEGETATION” (SYNGENTA CROP PROTECTION LLC, priority 2009, published 2012).

How the values were obtained:
Type in all cases: in vivo
[1] = test system: AMARE Amaranthus retroflexus; assay: Post-emergence crop and weed test (Example 15); settings: 360 h, after 15 days, read-out: Percentage damage AMARE
Procedure, shortened: (§1)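 Plants grown 14 days in a glasshouse (22/16 °C, 16 h light, 65% humidity) were sprayed post-emergence with active ingredient from a solvent/emulsifier stock diluted in water with 0.2% X-77. Damage was scored 15 days later on a 0–100 scale, where 100 is total damage.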

[2] = test system: EPHHL Euphorbia heterophylla; assay: Post-emergence crop and weed test (Example 15); settings: 360 h, after 15 days, read-out: Percentage damage EPHHL
Procedure, shortened: as §1

SINAR Sinapis arvensis [3] = assay: Post-emergence crop and weed test (Example 15); settings: Mutarda arvensis, 360 h, after 15 days, read-out: Percentage damage SINAR
Procedure, shortened: as §1

SIDSP Sida spinosa [4] = assay: Post-emergence crop and weed test (Example 15); settings: 360 h, after 15 days, read-out: Percentage damage SIDSP
Procedure, shortened: as §1

IPOHE Ipomoea hederacea [5] = assay: Post-emergence crop and weed test (Example 15); settings: 360 h, after 15 days, read-out: Percentage damage IPOHE
Procedure, shortened: as §1

[6] = test system: POLCO Polygonum convolvulus; assay: Post-emergence crop and weed test (Example 15); settings: Fallopia convolvulus, 360 h, after 15 days, read-out: Percentage damage POLCO
Procedure, shortened: as §1

[7] = test system: ABUTH Abutilon theophrasti; assay: Post-emergence crop and weed test (Example 15); settings: 360 h, after 15 days, read-out: Percentage damage ABUTH
Procedure, shortened: as §1

[8] = test system: XANST Xanthium strumarium; assay: Post-emergence crop and weed test (Example 15); settings: 360 h, after 15 days, read-out: Percentage damage XANST
Procedure, shortened: as §1

GLXMA Soybean [9] = assay: Post-emergence crop and weed test (Example 15); settings: Glycine max, 360 h, after 15 days, read-out: Percentage damage GLXMA
Procedure, shortened: as §1

KCHSC Kochia scoparia [10] = assay: Post-emergence crop and weed test (Example 15); settings: Bassia scoparia, 360 h, after 15 days, read-out: Percentage damage KCHSC
Procedure, shortened: as §1

GALAP Galium aparine [11] = assay: Post-emergence crop and weed test (Example 15); settings: 360 h, after 15 days, read-out: Percentage damage GALAP
Procedure, shortened: as §1

[12] = test system: AMARE Amaranthus retroflexus; assay: Pre-emergence crop and weed test (Example 16); settings: after 20 days
Procedure: (§2) Seeds of crop and representative weed species were sown in standard soil in pots. After cultivation for 1 day under controlled conditions in a glasshouse (at 22/16° C., day/night; 16 hours light; 65% humidity), the plants were sprayed. The spray solution was prepared by dissolving the technical active ingredient in acetone containing 10.56 wt % Emulsogen EL, 42.22 wt % N-methylpyrrolidone and 2.22 wt % DPG-monoethyl ether to give a 5% stock solution. This was then diluted with water containing 0.2% (v/v) of the adjuvant X-77 to give the desired treatment concentration.
(§3) The test plants were then grown on under controlled conditions in a glasshouse (at 22/16° C., day/night; 16 hours light; 65% humidity) and watered twice daily. After 20 days the test was evaluated (100=total damage to plant; 0=no damage to plant).
(§4) Species as for Post-Emergence Test.

[13] = test system: EPHHL Euphorbia heterophylla; assay: Pre-emergence crop and weed test (Example 16); settings: after 20 days
Procedure: as §2, §3, §4

CHEAL Chenopodium album [14] = assay: Pre-emergence crop and weed test (Example 16); settings: after 20 days
Procedure: as §2, §3, §4

SINAR Sinapis arvensis [15] = assay: Pre-emergence crop and weed test (Example 16); settings: after 20 days
Procedure: as §2, §3, §4

SIDSP Sida spinosa [16] = assay: Pre-emergence crop and weed test (Example 16); settings: after 20 days
Procedure: as §2, §3, §4

IPOHE Ipomoea hederacea [17] = assay: Pre-emergence crop and weed test (Example 16); settings: after 20 days
Procedure: as §2, §3, §4

[18] = test system: POLCO Polygonum convolvulus; assay: Pre-emergence crop and weed test (Example 16); settings: after 20 days
Procedure: as §2, §3, §4

[19] = test system: ABUTH Abutilon theophrasti; assay: Pre-emergence crop and weed test (Example 16); settings: after 20 days
Procedure: as §2, §3, §4

[20] = test system: XANST Xanthium strumarium; assay: Pre-emergence crop and weed test (Example 16); settings: after 20 days
Procedure: as §2, §3, §4

GLXMA Soybean [21] = assay: Pre-emergence crop and weed test (Example 16); settings: after 20 days
Procedure: as §2, §3, §4

KCHSC Kochia scoparia [22] = assay: Pre-emergence crop and weed test (Example 16); settings: after 20 days
Procedure: as §2, §3, §4

GALAP Galium aparine [23] = assay: Pre-emergence crop and weed test (Example 16); settings: after 20 days
Procedure: as §2, §3, §4

CHEAL Chenopodium album [24] = assay: Post-emergence crop and weed test (Example 15); settings: 360 h, 125 g/ha, after 15 days, read-out: Percentage damage CHEAL
Procedure, shortened: as §1

VERPE Veronica persica = assay: Post-emergence crop and weed test (Example 15); settings: 360 h, 125 g/ha, after 15 days, read-out: Percentage damage VERPE
Procedure, shortened: as §1

**Q.** For `C=Cc1c(N)nc(-c2ccc(Cl)c(OC)c2F)nc1C(=O)OC` [Compound 2, 4-Amino-2-(4-chloro-2-fluoro-3-methoxy-phenyl)-5-ethenyl-6-methoxy-carbonyl-pyrimidine], which pest or weed control at 8 g/ha ([1]; 8 g/ha) is on record?
**A.** 80%

**Q.** What about the pest or weed control at 8 g/ha ([2]; 8 g/ha) of the same molecule?
**A.** 90%

**Q.** What about the pest or weed control at 8 g/ha (SINAR Sinapis arvensis [3]; 8 g/ha) of the same molecule?
**A.** 10%

**Q.** And the pest or weed control at 8 g/ha (SIDSP Sida spinosa [4]; 8 g/ha)?
**A.** 80%

**Q.** What about the pest or weed control at 8 g/ha (IPOHE Ipomoea hederacea [5]; 8 g/ha) of the same molecule?
**A.** 90%

**Q.** And the pest or weed control at 8 g/ha ([6]; 8 g/ha)?
**A.** 70%

**Q.** What about the pest or weed control at 8 g/ha ([7]; 8 g/ha) of the same molecule?
**A.** 80%

**Q.** What about the pest or weed control at 8 g/ha ([8]; 8 g/ha) of the same molecule?
**A.** 90%

**Q.** What about the plant injury at 8 g/ha (GLXMA Soybean [9]; 8 g/ha) of the same molecule?
**A.** 60%

**Q.** What about the pest or weed control at 8 g/ha (KCHSC Kochia scoparia [10]; 8 g/ha) of the same molecule?
**A.** 30%

**Q.** And the pest or weed control at 8 g/ha (GALAP Galium aparine [11]; 8 g/ha)?
**A.** 80%

**Q.** What about the “Percentage damage AMARE” value ([12]; 15 g/ha) of the same molecule?
**A.** 40%

**Q.** And the “Percentage damage EPHHL” value ([13]; 15 g/ha)?
**A.** 100%

**Q.** And the “Percentage damage CHEAL” value (CHEAL Chenopodium album [14]; 15 g/ha)?
**A.** 70%

**Q.** And the “Percentage damage SINAR” value (SINAR Sinapis arvensis [15]; 15 g/ha)?
**A.** 30%

**Q.** And the “Percentage damage SIDSP” value (SIDSP Sida spinosa [16]; 15 g/ha)?
**A.** 80%

**Q.** And the “Percentage damage IPOHE” value (IPOHE Ipomoea hederacea [17]; 15 g/ha)?
**A.** 30%

**Q.** What about the “Percentage damage POLCO” value ([18]; 15 g/ha) of the same molecule?
**A.** 20%

**Q.** What about the “Percentage damage ABUTH” value ([19]; 15 g/ha) of the same molecule?
**A.** 40%

**Q.** What about the “Percentage damage XANST” value ([20]; 15 g/ha) of the same molecule?
**A.** 0%

**Q.** And the “Percentage damage GLXMA” value (GLXMA Soybean [21]; 15 g/ha)?
**A.** 20%

**Q.** What about the “Percentage damage KCHSC” value (KCHSC Kochia scoparia [22]; 15 g/ha) of the same molecule?
**A.** 100%

**Q.** What about the “Percentage damage GALAP” value (GALAP Galium aparine [23]; 15 g/ha) of the same molecule?
**A.** 100%

**Q.** With `COC(=O)c1nc(-c2ccc(Cl)c(OC)c2F)nc(NCc2ccco2)c1Cl` [Ref. Ex. E, 5-Chloro-2-(4-chloro-2-fluoro-3-methoxyphenyl)-4-(furan-2-ylmethylamino)-6-methoxycarbonyl-pyrimidine, reference compound] as the molecule, how does the pest or weed control at 125 g/ha ([1]; 125 g/ha) read?
**A.** 100%

**Q.** What about the pest or weed control at 125 g/ha ([2]; 125 g/ha) of the same molecule?
**A.** 100%

**Q.** And the pest or weed control at 125 g/ha (CHEAL Chenopodium album [24])?
**A.** 90%

**Q.** And the pest or weed control at 125 g/ha (SINAR Sinapis arvensis [3]; 125 g/ha)?
**A.** 90%

**Q.** What about the pest or weed control at 125 g/ha (SIDSP Sida spinosa [4]; 125 g/ha) of the same molecule?
**A.** 90%

**Q.** And the pest or weed control at 125 g/ha (IPOHE Ipomoea hederacea [5]; 125 g/ha)?
**A.** 90%

**Q.** And the pest or weed control at 125 g/ha ([6]; 125 g/ha)?
**A.** 90%

**Q.** What about the pest or weed control at 125 g/ha ([7]; 125 g/ha) of the same molecule?
**A.** 100%

**Q.** What about the pest or weed control at 125 g/ha ([8]; 125 g/ha) of the same molecule?
**A.** 100%

**Q.** What about the pest or weed control at 125 g/ha (VERPE Veronica persica) of the same molecule?
**A.** 10%

**Q.** And the plant injury at 125 g/ha (GLXMA Soybean [9]; 125 g/ha)?
**A.** 100%

**Q.** And the pest or weed control at 125 g/ha (KCHSC Kochia scoparia [10]; 125 g/ha)?
**A.** 90%

**Q.** What about the pest or weed control at 125 g/ha (GALAP Galium aparine [11]; 125 g/ha) of the same molecule?
**A.** 90%

**Q.** And the “Percentage damage AMARE” value ([12]; 125 g/ha)?
**A.** 70%

**Q.** And the “Percentage damage EPHHL” value ([13]; 125 g/ha)?
**A.** 100%

**Q.** And the “Percentage damage CHEAL” value (CHEAL Chenopodium album [14]; 125 g/ha)?
**A.** 30%

**Q.** What about the “Percentage damage SINAR” value (SINAR Sinapis arvensis [15]; 125 g/ha) of the same molecule?
**A.** 70%

**Q.** What about the “Percentage damage SIDSP” value (SIDSP Sida spinosa [16]; 125 g/ha) of the same molecule?
**A.** 70%

**Q.** And the “Percentage damage IPOHE” value (IPOHE Ipomoea hederacea [17]; 125 g/ha)?
**A.** 30%

**Q.** And the “Percentage damage POLCO” value ([18]; 125 g/ha)?
**A.** 0%

**Q.** What about the “Percentage damage ABUTH” value ([19]; 125 g/ha) of the same molecule?
**A.** 40%

**Q.** And the “Percentage damage XANST” value ([20]; 125 g/ha)?
**A.** 20%

**Q.** And the “Percentage damage GLXMA” value (GLXMA Soybean [21]; 125 g/ha)?
**A.** 10%

**Q.** What about the “Percentage damage KCHSC” value (KCHSC Kochia scoparia [22]; 125 g/ha) of the same molecule?
**A.** 60%

**Q.** What about the “Percentage damage GALAP” value (GALAP Galium aparine [23]; 125 g/ha) of the same molecule?
**A.** 90%
